Patent publication US20220160739A1, “METHODS FOR TREATING SUBJECTS WITH CHRONIC KIDNEY DISEASE” (Janssen Pharmaceutica NV, priority 2019, published 2022)

Columns and labels:
[1] = tested on: patients with type 2 diabetes mellitus (T2DM), Stage 2 or 3 chronic kidney disease (CKD) and macroalbuminuria; assay: Randomized, double-blind, placebo-controlled study of canagliflozin: efficacy (renal and CV endpoints, HbA1c, body weight, blood pressure); type: in vivo, human
From the text: (§1) This was a randomized, double-blind, event-driven, placebo-controlled, parallel-group, 2-arm, multicenter study to evaluate the effects of canagliflozin relative to placebo on progression to doubling of serum creatinine, end-stage kidney disease (ESKD), renal or cardiovascular (CV) death in patients with type 2 diabetes mellitus (T2DM), Stage 2 or 3 chronic kidney disease (CKD) and macroalbuminuria, who were receiving standard of care including a maximum tolerated labeled daily dose of an angiotensin-converting enzyme inhibitor (ACEi) or angiotensin receptor blocker (ARB). […] The safety objective was to assess the overall safety and tolerability of canagliflozin.
Randomization included a 1:1 ratio to canagliflozin 100 mg or matching placebo, stratified by screening estimated glomerular filtration rate (eGFR) [≥30 to less than 45, ≥45 to less than 60, ≥60 to less than 90 mL/min/1.73 m^2]. The primary efficacy composite endpoint was the time to the first occurrence of doubling of serum creatinine, ESKD, and renal or CV death. The major secondary efficacy endpoints (tested in the following hierarchical order) included: • Composite of CV death and hospitalized heart failure • Composite of CV death, non-fatal MI, and non-fatal stroke (i.e., 3-point “MACE”) • Hospitalized heart failure • Composite of doubling of serum creatinine, ESKD, and renal death • CV death • All-cause death • Composite of CV death, non-fatal MI, non-fatal stroke, hospitalized heart failure, and hospitalized unstable angina
A planned interim analysis was conducted at 413 primary endpoints and the IDMC subsequently recommended to stop the study early for efficacy based on pre-specified stopping criteria.
The primary analysis was performed in the Intent-To-Treat (ITT) analysis set (i.e., all randomized subjects through end of study) using a stratified Cox proportional hazard model including treatment as the explanatory variable and stratified by screening eGFR. Secondary endpoints were similarly analyzed.
As a result of stopping at the interim analysis, the primary endpoint was tested at a two-sided significance level of 0.022 based on the alpha spending function, whereas secondary endpoints were tested at 0.038.
Analyses were performed to assess the impact of adjusting for postbaseline measurements of HbA1c and systolic blood pressure in the primary efficacy analysis. A series of proportional hazard regression models which included postbaseline HbA1c and systolic blood pressure measurements as time-varying covariates were fit. Because changes in HbA1c have a delayed effect on cardiovascular risk, several models were constructed. In each model, HbA1c was evaluated first using the single coincident value, a single lagged value, and then as a running mean average value. Single coincident systolic blood pressure measurements were used for all analyses.

[2] = tested on: patients with type 2 diabetes mellitus (T2DM), Stage 2 or 3 chronic kidney disease (CKD) and macroalbuminuria; assay: Randomized, double-blind, placebo-controlled study of canagliflozin: safety and tolerability (adverse events); type: in vivo
From the text: as §1, with “canagliflozin. […]” for “canagliflozin.”
Treatment-emergent safety analyses and summaries were presented using the On-Treatment analysis set (i.e., all treated subjects through 30 days after last dose), whereas analyses of amputation, fracture, and malignancy were performed using the On-Study analysis set (i.e., all treated subjects through end of study).
Safety analyses were performed using either the On-Treatment analysis set (treated subjects up to 30 days of last dose) or the On-Study analysis set (treated subjects through the end of study).

[3] = canagliflozin compared to placebo, ITT
[4] = canagliflozin minus placebo, end of treatment
[5] = Cox proportional hazards model, On-Study

Cc1ccc(C2OC(CO)C(O)C(O)C2O)cc1Cc1ccc(-c2ccc(F)cc2)s1 (stereo not shown) [Canagliflozin]
HbA1c placebo-subtracted difference of LS means for change from baseline ([1]; 30-45 eGFR stratum): 0.03 | HbA1c placebo-subtracted difference of LS means for change from baseline ([1]; 45-60 eGFR stratum): −0.18 | HbA1c placebo-subtracted difference of LS means for change from baseline ([1]; 60 to <90 eGFR stratum): −0.21 | Kaplan-Meier plot, primary composite endpoint: initial separation ([1]; FIG. 1, maintained across the entire study): 52 Week | Treatment HR for the primary efficacy outcome, adjusted for time-varying HbA1c and systolic blood pressure ([1]; HbA1c Concurrent in the Cox model): 0.724 | Treatment HR for the primary efficacy outcome, adjusted for time-varying HbA1c and systolic blood pressure ([1]; HbA1c Lagged By 1 Visit): 0.737 | Treatment HR for the primary efficacy outcome, adjusted for time-varying HbA1c and systolic blood pressure ([1]; HbA1c Running Mean): 0.740 | All-Cause Mortality (%) ([1]; ITT): (7.6) % | All-Cause Mortality EVRT ([1]; ITT): 29.04 per 1000 patient-years | All-Cause Mortality n/N ([1]; ITT): 168/2202 | Composite of CV Death/NFMI/NF Stroke/HHF/HUSA (%) ([1]; ITT): (12.4) % | Composite of CV Death/NFMI/NF Stroke/HHF/HUSA EVRT ([1]; ITT): 49.35 per 1000 patient-years | Composite of CV Death/NFMI/NF Stroke/HHF/HUSA n/N ([1]; ITT): 273/2202 | Composite of DoSC/ESKD/Renal Death (%) ([1]; ITT): (6.9) % | Composite of DoSC/ESKD/Renal Death EVRT ([1]; ITT): 26.99 per 1000 patient-years | Composite of DoSC/ESKD/Renal Death n/N ([1]; ITT): 153/2202 | HHF (%) ([1]; ITT): (4.0) % | HHF (hospitalized heart failure) n/N ([1]; ITT): 89/2202 | HHF EVRT ([1]; ITT): 15.65 per 1000 patient-years | MACE (%) ([1]; ITT): (9.9) % | MACE EVRT ([1]; ITT): 38.71 per 1000 patient-years | MACE n/N ([1]; ITT, CV death, non-fatal MI, non-fatal stroke): 217/2202 | Composite of CV Death/HHF (%) ([1]; ITT, canagliflozin 100 mg): (8.1) % | Composite of CV Death/HHF EVRT ([1]; ITT, canagliflozin 100 mg): 31.47 per 1000 patient-years | Composite of CV Death/HHF n/N ([1]; ITT, canagliflozin 100 mg): 179/2202 | Doubling of Serum Creatinine EVRT ([1]; ITT, canagliflozin 100 mg): 20.73 per 1000 patient-years | ESKD EVRT ([1]; ITT, canagliflozin 100 mg): 20.37 per 1000 patient-years | Primary Composite Endpoint EVRT (event rate) ([1]; ITT, canagliflozin 100 mg): 43.21 per 1000 patient-years | Renal Death EVRT ([1]; ITT, canagliflozin 100 mg): 0.35 per 1000 patient-years | Primary composite endpoint HR, supportive analysis ([1]; On-Treatment analysis set, vs placebo): 0.64 | Doubling of Serum Creatinine HR (95% CI) [1, 3]: 0.60 (0.48, 0.76) | ESKD HR (95% CI) [1, 3]: 0.68 (0.54, 0.86) | Body weight least-squares mean difference, change from baseline [1, 4]: −1.72% | HbA1c least-squares mean difference, change from baseline [1, 4]: −0.13% | Systolic blood pressure least-squares mean difference, change from baseline [1, 4]: −2.81 mmHg | Reduction of risk of the primary composite endpoint ([1]; compared to placebo, ITT): 30% | Reduction of risk of certain primary endpoints ([1]; on top of current standard of care that includes ACEi or ARB therapy): about 25% | Exploratory hard composite of ESKD, renal death and CV death HR ([1]; vs placebo): 0.73 | Composite of CV death and hospitalized heart failure HR ([1]; vs placebo, ITT): 0.69 | Composite of CV death and hospitalized heart failure risk reduction ([1]; vs placebo, ITT): 31% | Composite of doubling of serum creatinine, ESKD, and renal death HR ([1]; vs placebo, ITT): 0.66 | Composite of doubling of serum creatinine, ESKD, and renal death risk reduction ([1]; vs placebo, ITT): 34% | Hospitalization for heart failure HR ([1]; vs placebo, ITT): 0.61 | Hospitalization for heart failure risk reduction ([1]; vs placebo, ITT): 39% | MACE HR ([1]; vs placebo, ITT): 0.80 | MACE risk reduction ([1]; vs placebo, ITT): 20% | Adjudicated fracture: HR (vs. Placebo) [2, 5]: 0.98 | Atraumatic lower limb amputation: HR (vs. Placebo) [2, 5]: 1.11 | Final vital status: Alive n (%) ([2]; ITT analysis set, N = 2202): 2030 (92.2) | Final vital status: Died n (%) ([2]; ITT analysis set, N = 2202): 168 (7.6) | Adjudicated fracture: IRD (minus Placebo) ([2]; On-Study): −0.29 /1000 subject-years | Adjudicated fracture: incidence rate ([2]; On-Study): 11.80 /1000 subject-years | Adjudicated fracture: number of events ([2]; On-Study): 80 | Atraumatic lower limb amputation: IRD (minus Placebo) ([2]; On-Study): 1.16 /1000 subject-years | Atraumatic lower limb amputation: incidence rate ([2]; On-Study): 12.34 /1000 subject-years
